Laboratory results from patent US20230104283A1, “JNK INHIBITOR, AND PHARMACEUTICAL COMPOSITION AND USE THEREOF” (WUHAN LL SCIENCE AND TECHNOLOGY DEVELOPMENT CO. , LTD, priority 2019, published 2023).
pIC50: −log10 of the molar value.

Columns and labels:
JNK1 kinase = target: T1, JNK1 kinase (Homo sapiens, UniProt P45983); experiment: JNK1 activity screening (time-resolved fluorometric HTRF kinase assay); assay type: biochemical; settings: enzymatic assay, activity level
T1 construct: purchased Carna Biosciences 04-163
T1 sequence (P45983 whole entry): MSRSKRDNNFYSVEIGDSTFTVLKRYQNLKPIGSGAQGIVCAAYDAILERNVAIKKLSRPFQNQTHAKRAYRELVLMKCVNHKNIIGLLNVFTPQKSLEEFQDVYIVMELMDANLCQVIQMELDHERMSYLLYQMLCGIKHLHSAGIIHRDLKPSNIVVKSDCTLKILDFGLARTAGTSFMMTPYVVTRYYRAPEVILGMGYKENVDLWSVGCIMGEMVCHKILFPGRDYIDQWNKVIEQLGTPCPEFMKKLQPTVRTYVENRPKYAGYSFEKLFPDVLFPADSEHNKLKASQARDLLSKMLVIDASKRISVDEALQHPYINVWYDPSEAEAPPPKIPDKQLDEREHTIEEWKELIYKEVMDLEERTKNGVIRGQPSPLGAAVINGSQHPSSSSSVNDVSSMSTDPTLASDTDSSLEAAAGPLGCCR
Experimental: JNK1 activity screening. JNK1 activity was detected using a 96-well (Cisbio, 66PL96025) time-resolved fluorometric assay. The JNK1 assay was conducted in the following assay buffer: 10 mM MgCl2 (Sigma, M1028), 1 mM MnCl2 (Sigma, M1787), 1 mM DTT (Sigma, D0632) and 1× Enzymatic buffer/kinase (Cisbio, 62EZBFDC). By using the assay buffer, 3 μL of 0.1 ng/μL JNK1 kinase (Carna Biosciences, 04-163) was added to a 96-well microplate, and then 4 μL of a compound diluted appropriately (with a DMSO content of 2.5%) was added. The resulting mixture was incubated at room temperature for 0.5 h. To start the reaction, the assay buffer was used to mix 0.003 μM ATP (Aladdin, A7699) and 30 μM substrate ATF2-GST fusion (Cisbio, 64CUS000AFPEB), and 3 μL of the mixed solution was added to the microplate. The resulting mixture was incubated at room temperature for 2.5 h. HTRF detection buffer ([…], 62SDBRDD) was used then to prepare a mixture of 5 μg/mL MAb Anti GST-XL665 (Cisbio, 61GSTXLA) and 0.045 μg/mL PAb Anti-phospho ATF2-K (Cisbio, 61P12KAZ), and 10 μL of the mixture was added to the plate to terminate the reaction. After incubation for about 12 h, the plate was read on a Perkin-Elmer Envision reader.

[1] = tested on: RAW264.7 phosphorylated c-Jun (Ser63); experiment: RAW264.7 phosphorylated c-Jun whole cell assay; assay type: cell-based; settings: Mus musculus; cytological assay, activity level; lipopolysaccharide-activated RAW264.7 cells, phospho-c-Jun (Ser63) ELISA
Experimental: RAW264.7 (ATCC TIB-71) cells were purchased from BeNa Culture Collection and maintained in a high-glucose DMEM medium (Gibco) containing 10% fetal bovine serum (Gibco) and 1% penicillin-streptomycin (Gibco). All cells were cultured at 37° C. in 95% air and 5% CO2. All cells were seeded into 120 μL of cell culture medium in a 96-well plate at a density of 2×10^5 cells per well. The stock solution of compound (15 mM) was serially diluted in DMSO (Sigma) and further diluted in growth medium, and it was then added at 15 μL per well as a 10× concentrated solution, well mixed with the cells and incubated with the cells for 30 min. Concentration of the compound vehicle (DMSO) in each well was 0.2%. After incubation for 30 min, the cells were activated with […] lipopolysaccharide (Sigma). Lipopolysaccharide was added to the growth medium as a 10× concentrated solution at 15 μL per well. The cell plate was incubated for 1 h, and then all the medium was removed. The level of C-Jun protein with phosphorylation of serine at site 63 was measured using the whole cell lysate kit-phosphorylated C-Jun assay (PathScan® Phospho-c-Jun (Ser63) Sandwich ELISA Kit) (CST, 7145C) according to the manufacturer's instructions.

| pIC50 (JNK1 kinase) | pIC50 [1] | SMILES |
| --- | --- | --- |
| < 6.00 | < 6.00 | C[C@@H]1CC[C@@H](Nc2cc(NC(C)(C)C)ncc2C#N)C[C@H]1O [Compound T044, 6-(tert-butylamino)-4-(((1R,3R,4R)-3-hydroxy-4-methylcyclohexyl)amino) nicotinonitrile] |
| 6.00 to 6.30 | < 6.00 | C[C@@H]1CC[C@@H](Nc2cc(NC3CCC3O)ncc2C(N)=O)C[C@H]1O (stereo partly drawn) [Compound T050, 4-(((1R,3R,4R)-3-hydroxy-4-methylcyclohexyl)amino)-6-((2-hydroxycyclobutyl)amino)nicotinamide] |
| > 7.00 | 6.00 to 6.30 | C[C@@H]1CC[C@@H](Nc2nc(NC3CC4(COC4)C3)ncc2C(N)=O)C[C@H]1O [Compound T015, 2-((2-oxaspiro[3.3]heptan-6-yl)amino)-4-(((1R,3R,4R)-3-hydroxy-4-methylcyclohexyl)amino)pyrimidine-5-carboxamide] |
| > 7.00 | 6.00 to 6.30 | CC(C)(C)Nc1ncc(C(N)=O)c(NC2CCC(=O)N(CCO)C2)n1 (stereo not drawn) [Compound T017, 2-(tert-butylamino)-4-((l-(2-hydroxyethyl)-6-oxopiperidin-3-yl)amino)pyrimidine-5-carboxamide] |
| 6.00 to 6.30 | < 6.00 | CC(=O)c1cnc(NC(C)(C)C(F)(F)F)nc1N[C@@H]1CC[C@@H](C)[C@H](O)C1 [Compound T071, 1-(4-(((1R,3R,4R)-3-hydroxy-4-methylcyclohexyl)amino)-2-((1,1,1-trifluoro-2-methylpropan-2-yl)amino)pyrimidin-5-yl)ethan-1-one] |
| 6.00 to 6.30 | < 6.00 | C[C@@H]1CC[C@@H](Nc2cc(NC3CC(O)C3)ncc2C(N)=O)C[C@H]1O (stereo partly drawn) [Compound T051, 4-(((1R,3R,4R)-3-hydroxy-4-methylcyclohexyl)amino)-6-((3-hydroxycyclobutyl)amino)nicotinamide] |
| 6.00 to 6.30 | < 6.00 | C[C@@H]1CC[C@@H](Nc2nc(NC(C)(C)C)ncc2C(=N)N)C[C@H]1O [Compound T003, 2-(tert-butylamino)-4-(((1R,3R,4R)-3-hydroxy-4-methylcyclohexyl)amino) pyrimidine-5-carboximidamide] |
| 6.00 to 6.30 | < 6.00 | CC(C)(C)Nc1ncc(C(N)=O)c(Nc2cccc(C(=O)O)c2)n1 [Compound T011, 3-((2-(tert-butylamino)-5-carbamoylpyrimidin-4-yl)amino) benzoic acid] |
| < 6.00 | < 6.00 | C[C@@H]1CC[C@@H](Nc2cc(NC3CC3)ncc2C(N)=O)C[C@H]1O [Compound T058, 6-(cyclopropylamino)-4-(((1R,3R,4R)-3-hydroxy-4-methylcyclohexyl)amino) nicotinamide] |
| 6.30 to 7.00 | 6.00 to 6.30 | C[C@@H]1CC[C@@H](Nc2nc(NC(C)(C)C)ncc2-n2cncn2)C[C@H]1O [Compound T035, (1R,2R,5R)-5-((2-(tert-butylamino)-5-(1H-1,2,4-triazol-1-yl)pyrimidin-4-yl)amino)-2-methylcyclohexan-1-ol] |
| < 6.00 | < 6.00 | CC(C)(C)Nc1ncc(C(N)=O)c(N2CCC(O)CC2)n1 [Compound T006, 2-(tert-butylamino)-4-(4-hydroxypiperidin-l-yl)pyrimidine-5-carboxamide] |
| < 6.00 | < 6.00 | C=Cc1cnc(NC(C)(C)C)nc1N[C@@H]1CC[C@@H](C)[C@H](O)C1 [Compound T066, (1R,2R,5R)-5-((2-(tert-butylamino)-5-vinylpyrimidin-4-yl)amino)-2-methylcyclohex-1-ol] |
| 6.00 to 6.30 | < 6.00 | C[C@@H]1CC[C@@H](Nc2cc(NCCO)ncc2C(N)=O)C[C@H]1O [Compound T046, 4-(((1R,3R,4R)-3-hydroxy-4-methylcyclohexyl)amino)-6-((2-hydroxyethyl)amino)nicotinamide] |
| > 7.00 | 6.30 to 7.00 | C[C@@H]1CC[C@@H](Nc2nc(NC(C)(C)C)ncc2C(N)=S)C[C@H]1O [Compound T001, 2-(tert-butylamino)-4-(((1R,3R,4R)-3-hydroxy-4-methylcyclohexyl)amino) pyrimidine-5-carbothioamide] |
